Measurements from US9346761B2, “Arginine methyltransferase inhibitors and uses thereof” (Epizyme, Inc., priority 2013, dated 2016).

target: T1, Full-length human PRMT3 (Homo sapiens, UniProt O60678); assay: PRMT3 biochemical assay (3H-SAM Flashplate, peptide substrate)
T1 construct: GST-tagged PRMT3; made in house; host or cells: E. coli BL21(DE3) Gold (pGEX-KG)
How it was run: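 Methylation of a biotinylated peptide (330 nM) by 0.5 nM GST-PRMT3 using 3H-SAM 100 nM with unlabelled SAM 1.8 uM, 20 mM Bicine pH 7.6, 2% DMSO, after 30 min enzyme–compound preincubation. Scintillation counts on streptavidin Flashplates normalised to 1 mM SAH and DMSO controls; curve fits with floating or fixed Hill slope.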

T1 sequence (O60678 with tags, fused parts or gaps): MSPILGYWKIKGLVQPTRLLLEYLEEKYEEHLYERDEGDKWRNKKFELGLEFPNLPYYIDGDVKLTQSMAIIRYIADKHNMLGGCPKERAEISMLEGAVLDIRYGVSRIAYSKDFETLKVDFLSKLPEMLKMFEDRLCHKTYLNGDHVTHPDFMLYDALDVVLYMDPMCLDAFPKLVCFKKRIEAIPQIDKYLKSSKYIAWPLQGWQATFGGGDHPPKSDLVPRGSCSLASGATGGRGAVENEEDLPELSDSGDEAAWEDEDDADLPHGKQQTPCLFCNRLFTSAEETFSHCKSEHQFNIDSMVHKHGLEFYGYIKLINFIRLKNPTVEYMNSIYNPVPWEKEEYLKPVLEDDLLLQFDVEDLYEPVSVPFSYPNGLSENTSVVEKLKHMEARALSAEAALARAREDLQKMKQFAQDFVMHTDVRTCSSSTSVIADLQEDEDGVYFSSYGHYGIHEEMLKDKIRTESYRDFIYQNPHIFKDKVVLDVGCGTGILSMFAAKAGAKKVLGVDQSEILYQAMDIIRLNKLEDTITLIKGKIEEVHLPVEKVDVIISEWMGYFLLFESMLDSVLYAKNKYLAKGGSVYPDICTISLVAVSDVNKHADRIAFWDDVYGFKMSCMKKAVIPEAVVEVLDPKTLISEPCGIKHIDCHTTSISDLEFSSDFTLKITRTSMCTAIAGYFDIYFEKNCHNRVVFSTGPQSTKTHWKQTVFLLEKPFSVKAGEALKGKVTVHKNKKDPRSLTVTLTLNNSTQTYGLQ

Row | Structure (SMILES) | IC50
1 | CNCCN(C)Cc1cn(CCCC(O)CO)nc1-c1ccc(F)cc1 (centres unmarked) [Compound 30] | > 10 µM
2 | CNCCN(C)Cc1c[nH]nc1-c1ccccc1C(F)(F)F [Compound 38] | > 10 µM
3 | CNCCN(C)Cc1cnn(C2CC2)c1-c1ccc(F)cc1 [Compound 14] | > 10 µM
4 | CNCCN(C)Cc1cn(C2CC2)nc1-c1ccc(F)cc1 [Compound 13] | > 10 µM
5 | CNCCN(C)Cc1cn[nH]c1-c1cc(F)cc(F)c1 [Compound 18] | 3.01 to 10 µM
6 | CNCCN(C)Cc1c[nH]nc1-c1cccc([N+](=O)[O-])c1 [Compound 21] | 1.01 to 3 µM
7 | CNCCN(C)Cc1c[nH]nc1-c1cccc(OC)c1 [Compound 24] | > 10 µM
8 | CNCCN(C)Cc1cnn(CCCC(O)CO)c1-c1ccc(F)cc1 (centres unmarked) [Compound 31] | > 10 µM
9 | CNCCN(C)Cc1c[nH]nc1-c1ccc(O)cc1 [Compound 27] | > 10 µM
10 | CNCCN(C)Cc1c[nH]nc1-c1ccc(N)cc1 [Compound 33] | 1.01 to 3 µM
11 | CNCCN(C)Cc1c[nH]nc1-c1ccccc1OC [Compound 23] | > 10 µM
12 | CNCCN(C)Cc1c[nH]nc1-c1ccccc1OC(F)(F)F [Compound 40] | > 10 µM
13 | CNCCN(C)Cc1c[nH]nc1-c1cccc(C#N)c1 [Compound 22] | > 10 µM
14 | CNCCN(C)Cc1cn[nH]c1-c1ccc(C#N)cc1 [Compound 17] | 1.01 to 3 µM
15 | CNCCN(C)Cc1c[nH]nc1-c1ccc(CO)cc1 [Compound 28] | 0.101 to 1 µM
16 | CNCCN(C)Cc1c[nH]nc1-c1ccc(Oc2ccccc2)cc1 [Compound 37] | 0.101 to 1 µM
17 | CNCCN(C)Cc1c[nH]nc1-c1cccc(O)c1 [Compound 26] | > 10 µM
18 | CCNC(=O)c1cccc(-c2n[nH]cc2CN(C)CCNC)c1 [Compound 43] | > 10 µM
19 | CNCCN(C)Cc1c[nH]nc1-c1ccc(C)cc1C [Compound 29] | > 10 µM
20 | CNCCN(C)Cc1c[nH]nc1-c1ccc(OC)cc1 [Compound 25] | > 10 µM
21 | CNCCN(C)Cc1cn(C(C)C)nc1-c1ccc(F)cc1 [Compound 15] | > 10 µM
22 | CCCc1ccc(-c2n[nH]cc2CN(C)CCNC)cc1 [Compound 20] | 3.01 to 10 µM
23 | CNCCN(C)Cc1cnn(C(C)C)c1-c1ccc(F)cc1 [Compound 16] | > 10 µM
